Assay results: article PMC12679472, “The structural requirements of 3,5-substituted oxindoles that determine selective AMPK or GSK3β inhibition” (RSC Medicinal Chemistry, 2025)
pEC50, pIC50: −log10 of the molar value. Like-named read-outs stand apart in the source and are kept apart here.

Experiments:
[1] = molecular target: purified recombinant human AMPK (α1β1γ1) (Homo sapiens, UniProt Q13131); assay: radiometric [33P]-ATP kinase activity assay, AMPK; assay type: biochemical; details: for Hill Slope: AMPK curve fit, kinase profiling report; for % Activity (enzyme activity relative to DMSO controls): AMPK; for inhibition of AMPK activity (in words): up to 10 μM; for HillSlope (GraphPad Prism best-fit, AMPK) / LogEC50 (GraphPad Prism best-fit, AMPK): sigmoidal dose-response variable slope; for LogEC50 (GraphPad Prism best-fit, AMPK): concentration axis Log(M)
cellular AMPK activity = details: cited from earlier work
[2] = molecular target: purified recombinant human AMPK (α1β1γ1) (Homo sapiens, UniProt P54619+Q13131+Q9Y478); assay: radiometric [33P]-ATP kinase activity assay, AMPK; assay type: biochemical; details: for pIC50: 10-dose singlet, 3-fold dilutions from 10 μM, read-out: AMPK IC50; for EC50: concentration axis Log(M)
[3] = molecular target: purified recombinant human GSK3β (Homo sapiens, UniProt P49841); assay: radiometric [33P]-ATP kinase activity assay, GSK3β; details: for Hill Slope: GSK3β curve fit, kinase profiling report; for HillSlope (GraphPad Prism best-fit, GSK3β) / LogEC50 (GraphPad Prism best-fit, GSK3β): sigmoidal dose-response variable slope
AMPK = tested on: AMPK; set-up: method as in PMID 23410232; details: at 10 μM; cited from earlier work
GSK3β = tested on: GSK3β; set-up: method as in PMID 23410232; details: at 10 μM; cited from earlier work
[4] = supplement kinase profiling report, 10 μM [33P]-ATP, read-out: IC50 (M) AMPK(A1/B1/G1)

Sequence of purified recombinant human GSK3β (P49841 whole entry): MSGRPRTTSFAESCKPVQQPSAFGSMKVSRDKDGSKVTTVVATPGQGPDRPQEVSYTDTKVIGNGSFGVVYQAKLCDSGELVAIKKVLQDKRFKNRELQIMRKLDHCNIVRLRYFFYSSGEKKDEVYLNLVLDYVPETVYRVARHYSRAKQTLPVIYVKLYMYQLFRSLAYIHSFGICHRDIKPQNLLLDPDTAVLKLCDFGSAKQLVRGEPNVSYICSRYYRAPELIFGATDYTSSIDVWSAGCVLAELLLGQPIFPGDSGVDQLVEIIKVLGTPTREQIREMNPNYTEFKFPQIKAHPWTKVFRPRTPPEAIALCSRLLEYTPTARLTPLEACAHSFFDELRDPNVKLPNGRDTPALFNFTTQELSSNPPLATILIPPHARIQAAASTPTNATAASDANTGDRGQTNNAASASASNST
Sequence of purified recombinant human AMPK (α1β1γ1) (Homo sapiens, UniProt P54619+Q13131+Q9Y478) (Q13131 whole entry): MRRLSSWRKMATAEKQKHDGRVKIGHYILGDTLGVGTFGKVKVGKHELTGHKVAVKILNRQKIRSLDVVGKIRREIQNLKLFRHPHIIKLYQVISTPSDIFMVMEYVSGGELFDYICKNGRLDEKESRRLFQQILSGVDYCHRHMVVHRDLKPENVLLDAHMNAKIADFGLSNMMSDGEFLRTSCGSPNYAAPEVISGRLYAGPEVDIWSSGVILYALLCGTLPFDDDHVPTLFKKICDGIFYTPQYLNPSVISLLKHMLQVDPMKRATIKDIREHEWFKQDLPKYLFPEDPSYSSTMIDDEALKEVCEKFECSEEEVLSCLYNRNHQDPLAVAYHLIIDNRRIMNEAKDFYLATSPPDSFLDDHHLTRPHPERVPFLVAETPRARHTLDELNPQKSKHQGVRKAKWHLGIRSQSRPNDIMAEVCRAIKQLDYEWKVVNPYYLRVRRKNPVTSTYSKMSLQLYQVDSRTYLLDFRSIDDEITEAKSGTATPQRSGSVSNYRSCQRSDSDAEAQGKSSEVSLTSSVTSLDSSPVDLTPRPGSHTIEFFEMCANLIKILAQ
Sequence of purified recombinant human AMPK (α1β1γ1) (Homo sapiens, UniProt P54619+Q13131+Q9Y478) (Q9Y478 whole entry partner): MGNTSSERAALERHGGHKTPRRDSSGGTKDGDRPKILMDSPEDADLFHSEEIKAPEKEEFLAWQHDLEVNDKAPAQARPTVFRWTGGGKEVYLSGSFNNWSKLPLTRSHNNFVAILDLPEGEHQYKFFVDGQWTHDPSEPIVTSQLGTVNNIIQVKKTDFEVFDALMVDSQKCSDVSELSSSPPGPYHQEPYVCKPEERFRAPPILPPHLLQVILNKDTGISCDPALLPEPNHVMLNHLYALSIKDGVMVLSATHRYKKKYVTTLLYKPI
Sequence of purified recombinant human AMPK (α1β1γ1) (Homo sapiens, UniProt P54619+Q13131+Q9Y478) (P54619 whole entry partner): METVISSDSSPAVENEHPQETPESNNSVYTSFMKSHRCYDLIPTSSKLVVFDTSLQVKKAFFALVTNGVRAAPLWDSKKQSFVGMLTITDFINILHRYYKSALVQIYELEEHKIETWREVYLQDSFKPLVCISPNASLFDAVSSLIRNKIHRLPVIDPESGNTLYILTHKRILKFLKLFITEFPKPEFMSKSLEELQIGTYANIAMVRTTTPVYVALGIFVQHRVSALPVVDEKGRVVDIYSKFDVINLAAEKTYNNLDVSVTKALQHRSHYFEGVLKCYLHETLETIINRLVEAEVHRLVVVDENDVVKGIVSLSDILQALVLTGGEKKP
Sequence of purified recombinant human AMPK (α1β1γ1) (Homo sapiens, UniProt Q13131) (Q13131 whole entry): as the sequence (Q13131 whole entry) above
Sequence of purified recombinant human AMPK (α1β1γ1) (Homo sapiens, UniProt Q13131) (Q9Y478 whole entry partner): as the sequence (Q9Y478 whole entry partner) above
Sequence of purified recombinant human AMPK (α1β1γ1) (Homo sapiens, UniProt Q13131) (P54619 whole entry partner): as the sequence (P54619 whole entry partner) above

| Compound | Hill Slope [1] | pIC50 ([2]; 10 μM [33P]-ATP) | inhibition of AMPK activity (in words) ([1]; 10 μM [33P]-ATP) | pIC50 [3] | Hill Slope [3] | HillSlope (GraphPad Prism best-fit, GSK3β) [3] | other results |
| --- | --- | --- | --- | --- | --- | --- | --- |
| Cn1cc(C2=C(c3cn(CCCSC(=N)N)c4ccccc34)C(=O)NC2=O)c2ccccc21 [RO-31-8220, reference compound] | -0.77 |  |  |  |  |  | % Activity (enzyme activity relative to DMSO controls) ([1]; Ro-31-8220 Conc. 1.02E-09 M): 91.37%; % Activity (enzyme activity relative to DMSO controls) ([1]; Ro-31-8220 Conc. 2.00E-05 M): 5.65%; % Activity (enzyme activity relative to DMSO controls) ([1]; Ro-31-8220 Conc. 2.22E-06 M): 9.47%; % Activity (enzyme activity relative to DMSO controls) ([1]; Ro-31-8220 Conc. 2.47E-07 M): 25.85%; % Activity (enzyme activity relative to DMSO controls) ([1]; Ro-31-8220 Conc. 2.74E-08 M): 71.55%; % Activity (enzyme activity relative to DMSO controls) ([1]; Ro-31-8220 Conc. 3.05E-09 M): 90.55%; % Activity (enzyme activity relative to DMSO controls) ([1]; Ro-31-8220 Conc. 6.67E-06 M): 3.95%; % Activity (enzyme activity relative to DMSO controls) ([1]; Ro-31-8220 Conc. 7.41E-07 M): 12.59%; % Activity (enzyme activity relative to DMSO controls) ([1]; Ro-31-8220 Conc. 8.23E-08 M): 51.73%; % Activity (enzyme activity relative to DMSO controls) ([1]; Ro-31-8220 Conc. 9.14E-09 M): 78.23%; IC50 [1, 4]: 8.36e-08 M |
| c1cc(-c2cnn3cc(-c4ccc(OCCN5CCCCC5)cc4)cnc23)ccn1 [Compound C, dorsomorphin] |  |  |  |  |  |  | concentration required to inhibit cellular AMPK activity (cellular AMPK activity): > 10 µM |
| CN1CCN(Cc2ccc(C=C3C(=O)Nc4ccc(CCC#N)cc43)cc2)CC1 (mixture of isomers) [Compound 8, (E/Z)-5-(2-Cyanoethyl)-3-(4-((4-methylpiperazin-1-yl)methyl)benzylidene)oxindole] |  | < 5.00 | did not demonstrate AMPK inhibition | < 5.00 |  |  |  |
| O=C1Nc2ccc(CCN3CCCCC3)cc2/C1=C/c1ccc(CN2CCOCC2)cc1 [Compound 9, (Z)-5-(2-(Piperidin-1-yl)ethyl)-3-(4-(morpholinomethyl)benzylidene)oxindole] |  | < 5.00 |  | < 5.00 |  |  |  |
| CNC(=O)c1ccccc1Oc1nc(Nc2cc(OC)c(OC)c(OC)c2)ncc1Br [SBI-0206965] |  |  |  |  |  |  | concentration required to inhibit cellular AMPK activity (cellular AMPK activity): > 10 µM |
| CCN(CC)CCNC(=O)c1c(C)[nH]c(/C=C2\C(=O)Nc3ccc(F)cc32)c1C [Sunitinib, sunitinib, reference compound] | -0.78 |  |  |  | -0.78 | -0.7769 | HillSlope (GraphPad Prism best-fit, AMPK) [1]: -0.7785; LogEC50 (GraphPad Prism best-fit, AMPK) [1]: -7.395; concentration required to inhibit cellular AMPK activity (cellular AMPK activity): < 5 µM |
| N#CCCc1ccc2c(c1)/C(=C/c1cc(CN3CCOCC3)c[nH]1)C(=O)N2 [Compound 14, (Z) 5-(2-cyanoethyl)-3-((4-(morpholinomethyl)-1H-pyrrol-2-yl)methylene)oxindole] | -0.86 | 5.30 | demonstrated AMPK inhibition | < 5.00 |  |  | EC50 ([2]; sigmoidal dose-response variable slope, Bottom = 0, read-out: EC50 (GraphPad Prism best-fit, % activity against AMPK)): 5.04e-06 M; HillSlope (GraphPad Prism best-fit, AMPK) [1]: -0.8552; LogEC50 (GraphPad Prism best-fit, AMPK) [1]: -5.298; inhibition of GSK3β kinase activity (in words) ([3]; up to 10 μM, 10 μM [33P]-ATP): did not show detectable GSK3β inhibition |
| CN1CCN(Cc2ccc(C=C3C(=O)Nc4ccc(C#N)cc43)cc2)CC1 (mixture of isomers) [Compound 12, (E/Z)-5-Cyano-3-(4-((4-methylpiperazin-1-yl)methyl)benzylidene)oxindole] |  | < 5.00 | did not demonstrate AMPK inhibition | 5.08 | -0.95 | -0.9519 | pEC50 [3]: 5.08; LogEC50 (GraphPad Prism best-fit, GSK3β) [3]: -5.082 |
| N#Cc1ccc2c(c1)/C(=C/c1cc(CN3CCOCC3)c[nH]1)C(=O)N2 [Compound 13, (Z)-5-Cyano-3-((4-(morpholinomethyl)-1H-pyrrol-2-yl)methylene)oxindole] | -0.38 |  | demonstrated AMPK inhibition | 5.31 | -0.59 | -0.5892 | EC50 ([2]; sigmoidal fit, extrapolated beyond 10 μM, read-out: EC50 (GraphPad Prism best-fit, % activity against AMPK), beyond top dose): 1.87e-05 M; IC50 [2, 4]: > 1e-05 M; HillSlope (GraphPad Prism best-fit, AMPK) [1]: -0.3757; LogEC50 (GraphPad Prism best-fit, AMPK), beyond top dose ([1]; sigmoidal fit, extrapolated beyond 10 μM): -4.728; pEC50 [3]: 5.31; LogEC50 (GraphPad Prism best-fit, GSK3β) [3]: -5.308 |
| N#CCCc1ccc2c(c1)C(=Cc1ccc(CN3CCOCC3)cc1)C(=O)N2 (mixture of isomers) [Compound 7, (E/Z)-5-(2-Cyanoethyl)-3-(4-(morpholinomethyl)benzylidene)oxindole] |  | < 5.00 | did not demonstrate AMPK inhibition | < 5.00 |  |  |  |
| CN1CCN(Cc2ccc(/C=C3\C(=O)Nc4ccc(CCN5CCCCC5)cc43)cc2)CC1 [Compound 10, (Z)-5-(2-(Piperidin-1-yl)ethyl)-3-(4-((4-methylpiperazin-1-yl)methyl)benzylidene)oxindole] |  | < 5.00 |  | < 5.00 |  |  |  |
| N#Cc1ccc2[nH]c(O)c(-c3ccc(CN4CCOCC4)cn3)c2c1 [AZD1080] |  |  |  |  |  |  | inhibition of AMPK kinase activity (AMPK): more than 50%; inhibition of GSK3β kinase activity (GSK3β): more than 50% |
| N#Cc1ccc2c(c1)C(=Cc1ccc(CN3CCOCC3)cc1)C(=O)N2 (mixture of isomers) [Compound 11, (E/Z)-5-Cyano-3-(4-(morpholinomethyl)benzylidene)oxindole] |  | < 5.00 | did not demonstrate AMPK inhibition | 5.47 | -0.95 | -0.9491 | pEC50 [3]: 5.47; LogEC50 (GraphPad Prism best-fit, GSK3β) [3]: -5.472 |
